# The supplement of paper PMC10883282
# ± gives the standard deviation of the averaged measurements.
# System: SK-LMS-1
# Test: relative viability vs DMSO control (72 h) (fraction); higher = more viable cells
# Outline: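 Serially diluted compound, 2.5 µl from source plates spanning 10 mM to 0.0002 mM, was added 24 h after sarcoma cell lines were seeded in 384-well plates at densities targeting 80–90% confluence. Plates then sat 72 h at 37 °C, 5% CO2, with 0.1% DMSO vehicle and a 5 µM positive control. Relative viability came from ATPLite as percent growth, averaged over up to triplicate wells, and was rescaled with 1 as full and 0 as none.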
Compound,relative viability (0.00017 µM),relative viability (0.00051 µM),relative viability (0.00152 µM),relative viability (0.00457 µM),relative viability (0.01372 µM),relative viability (0.04115 µM),relative viability (0.1235 µM),relative viability (0.3704 µM),relative viability (1.111 µM),relative viability (3.333 µM),relative viability (10 µM),relative viability (2 pM),relative viability (5 pM),relative viability (15 pM),relative viability (50 pM),relative viability (0.00014 µM),relative viability (0.00041 µM),relative viability (0.0012 µM),relative viability (0.0037 µM),relative viability (0.011 µM),relative viability (200 fM),relative viability (600 fM)
CC1(C)CNc2cc(NC(=O)c3cccnc3NCc3ccncc3)ccc21 [Motesanib],1.04 ± 0.042,1.02 ± 0.013,1.024 ± 0.0066,1.02 ± 0.016,1.06 ± 0.025,1.03 ± 0.033,1.02 ± 0.04,1.04 ± 0.027,0.99 ± 0.037,0.986 ± 0.017,0.925 ± 0.02,–,–,–,–,–,–,–,–,–,–,–
C[C@@H](c1ccc2nccn2c1)n1nnc2ncc(-c3cnn(C)c3)nc21 [Volitinib],1.03 ± 0.013,0.979 ± 0.016,0.975 ± 0.027,0.958 ± 0.027,0.763 ± 0.019,0.636 ± 0.017,0.548 ± 0.016,0.554 ± 0.024,0.546 ± 0.019,0.537 ± 0.016,0.538 ± 0.0092,–,–,–,–,–,–,–,–,–,–,–
Cc1ccc(NC(=O)c2ccc(CN3CCN(C)CC3)cc2)cc1Nc1nc(-c2cccnc2)cs1 [Masitinib],1.03 ± 0.013,1.05 ± 0.031,1.03 ± 0.022,1.02 ± 0.029,1.02 ± 0.029,1.04 ± 0.03,1.01 ± 0.018,1.008 ± 0.0068,0.953 ± 0.051,0.605 ± 0.0079,0.103 ± 0.0046,–,–,–,–,–,–,–,–,–,–,–
C=CC(=O)Nc1cccc(Oc2nc(Nc3ccc(N4CCN(C)CC4)cc3)nc3ccsc23)c1 [Olmutinib],1.06 ± 0.047,1.08 ± 0.013,1.07 ± 0.044,1.076 ± 0.006,1.09 ± 0.029,1.06 ± 0.015,1.08 ± 0.013,1.05 ± 0.04,0.976 ± 0.033,0.843 ± 0.016,0.113 ± 0.03,–,–,–,–,–,–,–,–,–,–,–
CC(C)(C)c1cc(NC(=O)Nc2ccc(-c3cn4c(n3)sc3cc(OCCN5CCOCC5)ccc34)cc2)no1 [Quizartinib],1.05 ± 0.018,1.07 ± 0.038,1.07 ± 0.029,1.03 ± 0.042,1.06 ± 0.043,1.05 ± 0.04,1.06 ± 0.018,0.979 ± 0.04,0.932 ± 0.019,0.832 ± 0.045,0.528 ± 0.029,–,–,–,–,–,–,–,–,–,–,–
CC(C)NC(=O)C1CCC(n2c(NC(=O)c3ccc(F)cc3)nc3ccc(CN4CCC(C(C)(C)O)CC4)cc32)CC1 (centres undefined) [Belizatinib],1.05 ± 0.024,1.06 ± 0.021,1.06 ± 0.039,1.07 ± 0.04,1.07 ± 0.069,1.11 ± 0.046,1.09 ± 0.023,1.04 ± 0.074,0.949 ± 0.05,0.758 ± 0.018,0.38 ± 0.021,–,–,–,–,–,–,–,–,–,–,–
Cc1ccc(F)c(NC(=O)Nc2ccc(-c3cccc4[nH]nc(N)c34)cc2)c1 [Linifanib],0.97 ± 0.011,1 ± 0.02,1.02 ± 0.022,1.01 ± 0.038,1.03 ± 0.037,1.01 ± 0.041,1.02 ± 0.05,1.04 ± 0.059,1.099 ± 0.0016,1.05 ± 0.058,1.06 ± 0.075,–,–,–,–,–,–,–,–,–,–,–
Cc1nc(NC(=O)N2CCC[C@H]2C(N)=O)sc1-c1ccnc(C(C)(C)C(F)(F)F)c1 [Alpelisib],1.02 ± 0.024,1.04 ± 0.048,1 ± 0.063,1.01 ± 0.022,0.967 ± 0.046,0.951 ± 0.048,0.889 ± 0.043,0.8312 ± 0.0082,0.749 ± 0.055,0.666 ± 0.025,0.54 ± 0.044,–,–,–,–,–,–,–,–,–,–,–
C[C@]1(O)C[C@@H](c2nc(-c3ccc4ccc(-c5ccccc5)nc4c3)c3c(N)nccn32)C1 [Linsitinib],1.04 ± 0.02,1.07 ± 0.022,1.05 ± 0.067,1.07 ± 0.025,1.04 ± 0.022,1.01 ± 0.025,1.01 ± 0.034,1.03 ± 0.019,1.01 ± 0.026,0.938 ± 0.011,0.71 ± 0.027,–,–,–,–,–,–,–,–,–,–,–
C=CC(=O)N1CCC([C@@H]2CCNc3c(C(N)=O)c(-c4ccc(Oc5ccccc5)cc4)nn32)CC1 [Zanubrutinib],0.996 ± 0.023,1.04 ± 0.055,1.03 ± 0.05,1.051 ± 0.0069,1.01 ± 0.06,1.05 ± 0.015,1.03 ± 0.025,1.08 ± 0.021,1.06 ± 0.012,1.07 ± 0.012,1.05 ± 0.04,–,–,–,–,–,–,–,–,–,–,–
CCc1cc2c(cc1N1CCC(N3CCOCC3)CC1)C(C)(C)c1[nH]c3cc(C#N)ccc3c1C2=O [Alectinib],1.06 ± 0.056,1.1 ± 0.043,1.08 ± 0.041,1.1 ± 0.027,1.12 ± 0.018,1.08 ± 0.06,1.119 ± 0.0081,1.12 ± 0.0046,1.1 ± 0.019,1.11 ± 0.021,1.08 ± 0.016,–,–,–,–,–,–,–,–,–,–,–
C[C@@H]1CCN(C(=O)CC#N)C[C@@H]1N(C)c1ncnc2[nH]ccc12 [Tofacitinib],1.08 ± 0.053,1.05 ± 0.057,1.1 ± 0.057,1.11 ± 0.042,1.09 ± 0.064,1.07 ± 0.031,1.062 ± 0.0089,1.07 ± 0.022,1.07 ± 0.039,1.03 ± 0.039,0.902 ± 0.056,–,–,–,–,–,–,–,–,–,–,–
CC[C@H](Nc1ncnc2[nH]cnc12)c1nc2cccc(F)c2c(=O)n1-c1ccccc1 [Idelalisib],1.02 ± 0.019,1.02 ± 0.046,1.02 ± 0.084,1.01 ± 0.028,0.991 ± 0.034,1.02 ± 0.041,0.972 ± 0.049,0.929 ± 0.035,0.838 ± 0.049,0.71 ± 0.03,0.618 ± 0.025,–,–,–,–,–,–,–,–,–,–,–
COc1cc2nccc(Oc3ccc(NC(=O)Nc4cc(C)on4)c(Cl)c3)c2cc1OC [Tivozanib],1.01 ± 0.022,0.999 ± 0.029,1.05 ± 0.04,1.05 ± 0.037,1.03 ± 0.038,0.9926 ± 0.0016,0.989 ± 0.036,1.08 ± 0.044,1.16 ± 0.043,0.908 ± 0.058,0.462 ± 0.015,–,–,–,–,–,–,–,–,–,–,–
COc1cc2c(cc1O)CCN[C@]21CS[C@@H]2c3c(OC(C)=O)c(C)c4c(c3[C@H](COC1=O)N1[C@@H]2[C@H]2c3c(cc(C)c(OC)c3O)C[C@@H]([C@@H]1O)N2C)OCO4 [Trabectedin],–,–,–,–,–,–,–,–,–,–,–,1.06 ± 0.08,1.04 ± 0.026,1.03 ± 0.043,1.06 ± 0.045,1.07 ± 0.052,0.848 ± 0.04,0.255 ± 0.014,0.332 ± 0.006,0.35 ± 0.014,1.03 ± 0.076,1.06 ± 0.048
N#CC[C@H](C1CCCC1)n1cc(-c2ncnc3[nH]ccc23)cn1 [Ruxolitinib],1.03 ± 0.012,1 ± 0.037,0.995 ± 0.036,1.03 ± 0.034,1.036 ± 0.0052,1.035 ± 0.0072,1.02 ± 0.021,1.03 ± 0.029,1.03 ± 0.039,0.986 ± 0.033,0.828 ± 0.02,–,–,–,–,–,–,–,–,–,–,–
Cc1cc(C)c(/C=C2\C(=O)Nc3ccccc32)[nH]1 [Semaxanib],0.927 ± 0.045,0.907 ± 0.044,0.897 ± 0.025,0.878 ± 0.033,0.897 ± 0.053,0.874 ± 0.039,0.872 ± 0.02,0.894 ± 0.018,0.905 ± 0.027,0.871 ± 0.033,0.811 ± 0.013,–,–,–,–,–,–,–,–,–,–,–
O=C(Cc1ccc(-c2ccc(OCCN3CCOCC3)cc2)cn1)NCc1ccccc1 [KX2-391],1.03 ± 0.047,1.02 ± 0.02,1.05 ± 0.019,1 ± 0.038,0.99 ± 0.038,0.704 ± 0.034,0.537 ± 0.023,0.361 ± 0.0063,0.338 ± 0.021,0.344 ± 0.018,0.333 ± 0.0098,–,–,–,–,–,–,–,–,–,–,–
COc1cc2c(Oc3ccc4[nH]c(C)cc4c3F)ncnc2cc1OCCCN1CCCC1 [Cediranib],1.01 ± 0.011,1.02 ± 0.028,1.02 ± 0.038,1.03 ± 0.052,0.989 ± 0.025,1.02 ± 0.042,0.98 ± 0.017,0.977 ± 0.025,0.925 ± 0.013,0.911 ± 0.029,0.462 ± 0.066,–,–,–,–,–,–,–,–,–,–,–
